Biological target: T1, NLRP3 (Homo sapiens, UniProt Q96P20)
T1 construct: host or cells: PMA-differentiated THP-1 cells
Experiment: Measurement of IL-1β production in PMA-differentiated THP-1 cells (NLRP3 hIL1B)
Type: cell-based
Procedure, shortened: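 THP-1 cells differentiated with PMA, then replated in RPMI with 2% FBS and exposed to compound for 4 h (alternative: 2 h; hTRF protocol: 2 h at 37 °C, top concentration 10 μM). Supernatant IL-1β was quantified by ELISA or HTRF. Final DMSO 1%, with vehicle control.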

T1 sequence (Q96P20 whole entry): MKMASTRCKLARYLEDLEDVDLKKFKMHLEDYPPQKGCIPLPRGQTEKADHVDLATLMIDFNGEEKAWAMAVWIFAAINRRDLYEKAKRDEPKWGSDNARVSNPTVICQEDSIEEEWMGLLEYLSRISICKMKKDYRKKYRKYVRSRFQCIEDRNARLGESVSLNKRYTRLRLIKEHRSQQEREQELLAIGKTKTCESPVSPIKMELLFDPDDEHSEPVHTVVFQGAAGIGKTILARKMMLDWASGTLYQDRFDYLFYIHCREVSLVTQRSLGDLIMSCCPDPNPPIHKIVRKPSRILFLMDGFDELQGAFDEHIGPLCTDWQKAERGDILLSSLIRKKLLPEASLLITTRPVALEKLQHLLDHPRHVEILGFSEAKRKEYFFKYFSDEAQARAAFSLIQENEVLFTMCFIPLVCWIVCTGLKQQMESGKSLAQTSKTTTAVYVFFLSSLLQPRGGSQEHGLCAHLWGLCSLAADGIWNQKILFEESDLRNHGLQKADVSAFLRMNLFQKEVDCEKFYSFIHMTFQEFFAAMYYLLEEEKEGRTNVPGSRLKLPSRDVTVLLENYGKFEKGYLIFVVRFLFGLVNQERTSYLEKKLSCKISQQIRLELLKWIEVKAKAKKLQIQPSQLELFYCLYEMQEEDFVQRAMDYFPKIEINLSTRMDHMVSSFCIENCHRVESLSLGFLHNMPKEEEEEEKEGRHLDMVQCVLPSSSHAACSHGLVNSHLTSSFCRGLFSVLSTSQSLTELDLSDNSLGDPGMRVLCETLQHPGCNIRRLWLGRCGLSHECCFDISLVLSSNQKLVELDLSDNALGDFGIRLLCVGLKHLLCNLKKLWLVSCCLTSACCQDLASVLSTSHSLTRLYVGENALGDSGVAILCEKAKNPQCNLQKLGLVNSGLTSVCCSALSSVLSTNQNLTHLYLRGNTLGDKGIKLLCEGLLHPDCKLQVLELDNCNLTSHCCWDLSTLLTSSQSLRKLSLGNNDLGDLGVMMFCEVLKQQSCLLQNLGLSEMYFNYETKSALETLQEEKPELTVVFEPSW

Molecule `Nc1nc(OCCO)c2ccc(-c3ccn[nH]3)cc2n1` [Example 4, 2-((2-amino-7-(1H-pyrazol-3-yl)quinazolin-4-yl)oxy)ethan-1-ol] has an EC50 of 6.54 µM.
